# Source: PMC8395111 (International Journal of Molecular Sciences, 2021)
# Like-named read-outs stand apart in the source and are kept apart here. Square brackets hold non-standard residues; d marks the D form. Peptide text beside a SMILES is read from it.
# Legend:
# [1] = pH 7.4
# Description: (§4) Spectra of tryptophan fluorescence were measured at room temperature with a Cary Eclipse fluorescence spectrophotometer of Varian (Salt Lake City, UT, USA). The excitation wavelength was set to 280 nm, and the slid-width was 10 nm. The emission was recorded between 300 nm and 410 nm.
# (§5) Quenching of Tryptophan was carried out in the presence and absence of phospholipid liposomes (lipid-to-peptide ratio 25:1) using 0.1, 0.4 and 0.7 M acrylamide. The data were analyzed according to the Stern–Volmer equation (Equation (2)):(2) F0/F=1+KSV×[Q] where F0 and F represent the fluorescence emission intensities in the absence and presence of the quencher molecule (Q), and KSV is the Stern–Volmer quenching constant, which is a quantitative measure for the accessibility of tryptophan to acrylamide [80].
# [2] = Tryptophan fluorescence and acrylamide quenching in buffer (solubility/aggregation); conditions: for λ em,max / KSV (Stern–Volmer constant): PBS, mean ± SD, three experiments; for λ em,max: Trp fluorescence, excitation 280 nm, room temperature; for KSV (Stern–Volmer constant): acrylamide 0.1, 0.4, 0.7 M
# Description: as §4, §5
# [3] = test system: melanoma cell line SBcl-2; assay type: cell-based; conditions: SBcl-2, PI-uptake
# Description: (§1) To determine peptide-induced cell death, cells were resuspended in respective media (see Section 2.2) and diluted to a concentration of 1 × 10^6 cells/mL. 100 µL Aliquots (10^5 cells) were incubated with different peptide concentrations (5 µM to 100 µM) for up to 8 h in the presence of propidium iodide PI (2 µL/10^5 cells of 50 µg/mL, Molecular Probes Inc., Eugene, OR, USA) at room temperature in black 96-well plates. PI-uptake was measured after 0, 1, 2, 4 and 8 h using the GloMax® Multi+ Detection System (Promega, Madison, WI, USA). Cytotoxicity was calculated from the percentage of PI-positive cells in media alone (P0) and in the presence of peptide (PX) (see Equation (3)). Triton-X-100 was used to determine 100% of PI-positive cells (P100). (3) %PI−uptake=100×(PX−P0)/(P100−P0)
# (§2) Excitation and emission wavelengths were 536 nm and 617 nm, respectively. The cytotoxicity of the peptides was further investigated in the presence of different serum types and amounts, as well as in the presence of protease inhibition.
# [4] = test system: glioblastoma cell line U-87 mg; assay type: cell-based; conditions: PI-uptake
# Description: as §1, §2
# [5] = test system: glioblastoma cell line LN-229; assay type: cell-based; conditions: LN-229, PI-uptake
# Description: as §1, §2
# [6] = Propidium iodide-uptake toxicity assay, NHDF; assay type: cell-based, human; conditions: human, normal human dermal fibroblasts (NHDF), PI-uptake, fibroblast growth medium (2% FBS)
# Description: as §1, with “([…])” for “(10^5 cells) were incubated with different peptide concentrations (5 µM to 100 µM)”
# as §2
# [7] = Ex vitro stability study in human serum, SDS-PAGE; assay type: in vitro ADME; conditions: 50 µg peptide in 200 µL, 37 °C, Coomassie
# Description: (§3) Peptide stability was tested in the presence of fetal bovine serum (FBS, Gibco®) and human serum (HS, Sigma-Aldrich, Deisenhofen, Germany). Therefore 50 µg of the peptide was mixed with 0 µL (0%), 4 µL (2%) and 20 µL (10%) pure FBS or HS and refilled with PBS buffer to a total volume of 200 µL and incubated for 1 day, 6 days and 7 days at 37 °C. Sample aliquots of 10 µL were taken before incubation (0 h) and after 1 h, 8 h, 24 h, 2 days and 7 days of incubation. The aliquots (10 µL) were immediately mixed with 10 µL 2 × loading sample buffer and stored at −20 °C. The collected samples of the stability studies were analyzed by SDS- polyacrylamide gel electrophoresis (BioRad, Mini-PROTEAN Tetra System). As a standard, the Ultra-low Range Molecular Weight Marker M3546 (Sigma-Aldrich, Deisenhofen, Germany) was used. Before use, the collected samples of the stability studies (10 µL aliquot + 10 µL 2 xLD), as well as the Ultra-Low Molecular Weight marker (ULMW), were brought to room temperature. A concentration series in the range of 0.5 µg, 1 µg and 2.5 µg peptide per 10 µL sample volume was prepared in PBS for each peptide. In total, 10 µL of the resulting samples (0.5 µg, 1 µg and 2.5 µg peptide) were mixed with 10 µL 2 × loading buffer. Afterwards, all samples (collected samples, ULMW, concentration series) were incubated at 95 °C for 10 min.
# [8] = Ex vitro stability study in fetal bovine serum, SDS-PAGE; assay type: in vitro ADME; conditions: 50 µg peptide in 200 µL, 37 °C, Coomassie, at least two measurements
# Description: as §3
# [9] = test system: normal human dermal fibroblasts NHDF; assay: Propidium iodide-uptake toxicity assay, NHDF; assay type: cell-based; conditions: 2–20 µM peptide, 8 h
# Description: as §1, with “([…])” for “(10^5 cells) were incubated with different peptide concentrations (5 µM to 100 µM)”
# as §2
# [10] = not given; remark: listed apart in the source
# melanoma cell line A375 = assay type: cell-based; conditions: A375, PI-uptake, 10% FBS
# Description: as §1, §2
# The standard growth medium used for cell line A375 was DMEM containing 10% fetal bovine serum (FBS). Before the study of peptide-induced cytotoxicity, cells were diluted to 10^5 cells/100 µL in DMEM containing 2% FBS. […]
# [11] = cited from earlier work
# Excerpt: The blood-brain barrier (BBB) is formed by a tightly sealed monolayer of endothelial cells, and the tight junctions between the endothelial cells are responsible for the barrier function of the BBB. Various drugs are discovered to treat central nervous system (CNS) disorders but fail to enter the market because of their inability to cross the BBB [19]. Vemurafenib, an antitumoral agent that is capable to pass the BBB, was approved in 2011. It inhibits the BRAF-serine/threonine-kinase and leads to a median survival of 13.6 months compared to 9.7 months upon treatment with dacarbazine [ ...
# [12] = 2% HS in PBS, 7 days, at least two measurements
# [13] = 2% FBS in PBS, up to 7 days (9D-RDP215 main series 2 days, repeat 7 days)
Structure (SMILES),"λ em,max [2] [nm]",KSV (Stern–Volmer constant) [2] [M⁻¹],LC50 after 8 h [3] [µM],LC50 after 8 h [4] [µM],LC50 after 8 h [5] [µM],CC50 at 4 h [6] [µM],CC50 at 8 h [6] [µM],"peptide degradation [7, 12]","peptide degradation [8, 13]","peptide degradation ([8]; 10% FBS in PBS, up to 7 days)",median survival [11] [months],further results
"CC[C@H](C)[C@H](NC(=O)[C@@H](CCCNC(=N)N)NC(=O)[C@H](Cc1c[nH]c2ccccc12)NC(=O)[C@H](N)Cc1ccccc1)C(=O)N[C@H](CCCNC(=N)N)C(=O)N[C@H](C(=O)N[C@H](CCCNC(=N)N)C(=O)N[C@H](CCCNC(=N)N)C(=O)N1CCC[C@H]1C(=O)N[C@H](CCCNC(=N)N)C(=O)N[C@H](CCCNC(=N)N)C(=O)N[C@H](C(=O)N[C@H](CCCNC(=N)N)C(=O)N[C@H](C(=O)N[C@H](CCCNC(=N)N)C(=O)N[C@@H](Cc1c[nH]c2ccccc12)C(=O)N[C@H](Cc1ccccc1)C(N)=O)[C@@H](C)CC)[C@@H](C)CC)[C@@H](C)CC [9D-RDP215, 9D-R-DIM-P-LF11-215] (H-[dF]W[dR]I[dR]I[dR][dR]P[dR][dR]I[dR]I[dR]W[dF]-NH2)",354 ± 0.5,27.0 ± 2.8,1.8 ± 0.1,1.6 ± 0.1,1.4 ± 5.1,58.8 ± 4.2,18.9 ± 1,does not show any peptide degradation,no degradation,no degradation,,"solubility / aggregation in buffer [1]: completely dissolved and not aggregated; peptide degradation ([7]; 10% HS in PBS, up to 7 days, at least two measurements): does not show any peptide degradation"
"CC[C@H](C)[C@H](NC(=O)[C@H](CCCNC(=N)N)NC(=O)[C@@H](NC(=O)[C@H](CCCNC(=N)N)NC(=O)[C@H](CCCNC(=N)N)NC(=O)[C@@H]1CCCN1C(=O)[C@H](CCCNC(=N)N)NC(=O)[C@H](CCCNC(=N)N)NC(=O)[C@@H](NC(=O)[C@H](CCCNC(=N)N)NC(=O)[C@@H](NC(=O)[C@H](CCCNC(=N)N)NC(=O)[C@H](Cc1c[nH]c2ccccc12)NC(=O)[C@@H](N)Cc1ccccc1)[C@@H](C)CC)[C@@H](C)CC)[C@@H](C)CC)C(=O)N[C@@H](CCCNC(=N)N)C(=O)N[C@@H](Cc1c[nH]c2ccccc12)C(=O)N[C@@H](Cc1ccccc1)C(N)=O [RDP215, R-DIM-P-LF11-215] (H-FWRIRIRRPRRIRIRWF-NH2)",356 ± 0,24.7 ± 5.4,4.7 ± 0.4,3.0 ± 0.1,1.7 ± 0.1,99.1 ± 0.1,68.2 ± 1.8,completely degraded,No degradation,No degradation,,"decrease of KSV vs buffer: 20.7 M⁻¹; solubility / aggregation in buffer ([2]; PBS pH 7.4, concluded from Trp emission maximum and KSV): completely dissolved and not aggregated; harm on NHDF cells (PI-uptake) [9]: no harm; peptide degradation ([7]; 2% HS in PBS, 1 h to 2 days): ongoing peptide degradation; peptide degradation ([7]; 10% HS in PBS, 24 h, at least two measurements): completely degraded; λem,max with DPPS [10]: 336 nm; LC50 after 4 h (melanoma cell line A375; 4 h): 17.1 ± 1.5 µM; LC50 after 8 h (melanoma cell line A375; 8 h): 3.8 ± 0.3 µM"
"CCCS(=O)(=O)Nc1ccc(F)c(C(=O)c2c[nH]c3ncc(-c4ccc(Cl)cc4)cc23)c1F [Vemurafenib, vemurafenib]",,,,,,,,,,,13.6,
CN(C)/N=N/c1[nH]cnc1C(N)=O [dacarbazine],,,,,,,,,,,9.7,
